Source: patent US20250026742A1 (SUZHOU ARK BIOPHARMACEUTICAL CO., LTD., priority 2021, published 2025)
Structures can show the parent of a compound that is named as a salt.

Biological target: ATR kinase (Homo sapiens (Human), UniProt Q13535)
Test: ATR enzyme activity inhibition assay (HTRF)
Format: biochemical
Settings: p53 substrate, full-length ATR enzyme
Description: The inhibitory ability to ATR kinase for selected compounds was tested by the HTRF (Homogeneous Time-Resolved Fluorescence). In the reaction system, After the substrate p53 is phosphorylated by ATR, the anti-phospho-p53-Eu that serves as an energy donor and specifically binds to the phosphorylation site on p53 is added. Then, the anti-GST-d2 as an energy acceptor that specifically binds to the GST tag carried on p53 is added. […] The IC50 of the sample to be tested can be obtained through graphing and calculation.
Prepare various buffer systems required for the experiment: • 1. […] Prepare detection buffer: Dilute each of the anti-phospho-p53-Eu cryptate (Cisbio, Cat #61P08KA) and anti-GST-d2 (Cisbio, Cat #61GSTDLB) to 1 unit using HTRF detection buffer (Cisbio, Cat #62SDBRDF).
Powdered compounds were dissolved in DMSO to from a stock solution at a concentration of 10 mM. The solution of compounds to be tested at a concentration of […] was performed a 3-fold dilution for 10 concentrations with DMSO. […] 5 μL of ATR was added to each well accordingly. Each well is incubated at 25° C. for 10 min, added with 5 μL of reaction substrate, incubated at 25° C. for 90 min and added with 10 μL of detection solution. […] The inhibition curves of the compounds were made by the four-parameter […] regression equation of XLfit software, and the inhibition rates of the compounds were calculated.

Chain of ATR kinase (Q13535 whole entry): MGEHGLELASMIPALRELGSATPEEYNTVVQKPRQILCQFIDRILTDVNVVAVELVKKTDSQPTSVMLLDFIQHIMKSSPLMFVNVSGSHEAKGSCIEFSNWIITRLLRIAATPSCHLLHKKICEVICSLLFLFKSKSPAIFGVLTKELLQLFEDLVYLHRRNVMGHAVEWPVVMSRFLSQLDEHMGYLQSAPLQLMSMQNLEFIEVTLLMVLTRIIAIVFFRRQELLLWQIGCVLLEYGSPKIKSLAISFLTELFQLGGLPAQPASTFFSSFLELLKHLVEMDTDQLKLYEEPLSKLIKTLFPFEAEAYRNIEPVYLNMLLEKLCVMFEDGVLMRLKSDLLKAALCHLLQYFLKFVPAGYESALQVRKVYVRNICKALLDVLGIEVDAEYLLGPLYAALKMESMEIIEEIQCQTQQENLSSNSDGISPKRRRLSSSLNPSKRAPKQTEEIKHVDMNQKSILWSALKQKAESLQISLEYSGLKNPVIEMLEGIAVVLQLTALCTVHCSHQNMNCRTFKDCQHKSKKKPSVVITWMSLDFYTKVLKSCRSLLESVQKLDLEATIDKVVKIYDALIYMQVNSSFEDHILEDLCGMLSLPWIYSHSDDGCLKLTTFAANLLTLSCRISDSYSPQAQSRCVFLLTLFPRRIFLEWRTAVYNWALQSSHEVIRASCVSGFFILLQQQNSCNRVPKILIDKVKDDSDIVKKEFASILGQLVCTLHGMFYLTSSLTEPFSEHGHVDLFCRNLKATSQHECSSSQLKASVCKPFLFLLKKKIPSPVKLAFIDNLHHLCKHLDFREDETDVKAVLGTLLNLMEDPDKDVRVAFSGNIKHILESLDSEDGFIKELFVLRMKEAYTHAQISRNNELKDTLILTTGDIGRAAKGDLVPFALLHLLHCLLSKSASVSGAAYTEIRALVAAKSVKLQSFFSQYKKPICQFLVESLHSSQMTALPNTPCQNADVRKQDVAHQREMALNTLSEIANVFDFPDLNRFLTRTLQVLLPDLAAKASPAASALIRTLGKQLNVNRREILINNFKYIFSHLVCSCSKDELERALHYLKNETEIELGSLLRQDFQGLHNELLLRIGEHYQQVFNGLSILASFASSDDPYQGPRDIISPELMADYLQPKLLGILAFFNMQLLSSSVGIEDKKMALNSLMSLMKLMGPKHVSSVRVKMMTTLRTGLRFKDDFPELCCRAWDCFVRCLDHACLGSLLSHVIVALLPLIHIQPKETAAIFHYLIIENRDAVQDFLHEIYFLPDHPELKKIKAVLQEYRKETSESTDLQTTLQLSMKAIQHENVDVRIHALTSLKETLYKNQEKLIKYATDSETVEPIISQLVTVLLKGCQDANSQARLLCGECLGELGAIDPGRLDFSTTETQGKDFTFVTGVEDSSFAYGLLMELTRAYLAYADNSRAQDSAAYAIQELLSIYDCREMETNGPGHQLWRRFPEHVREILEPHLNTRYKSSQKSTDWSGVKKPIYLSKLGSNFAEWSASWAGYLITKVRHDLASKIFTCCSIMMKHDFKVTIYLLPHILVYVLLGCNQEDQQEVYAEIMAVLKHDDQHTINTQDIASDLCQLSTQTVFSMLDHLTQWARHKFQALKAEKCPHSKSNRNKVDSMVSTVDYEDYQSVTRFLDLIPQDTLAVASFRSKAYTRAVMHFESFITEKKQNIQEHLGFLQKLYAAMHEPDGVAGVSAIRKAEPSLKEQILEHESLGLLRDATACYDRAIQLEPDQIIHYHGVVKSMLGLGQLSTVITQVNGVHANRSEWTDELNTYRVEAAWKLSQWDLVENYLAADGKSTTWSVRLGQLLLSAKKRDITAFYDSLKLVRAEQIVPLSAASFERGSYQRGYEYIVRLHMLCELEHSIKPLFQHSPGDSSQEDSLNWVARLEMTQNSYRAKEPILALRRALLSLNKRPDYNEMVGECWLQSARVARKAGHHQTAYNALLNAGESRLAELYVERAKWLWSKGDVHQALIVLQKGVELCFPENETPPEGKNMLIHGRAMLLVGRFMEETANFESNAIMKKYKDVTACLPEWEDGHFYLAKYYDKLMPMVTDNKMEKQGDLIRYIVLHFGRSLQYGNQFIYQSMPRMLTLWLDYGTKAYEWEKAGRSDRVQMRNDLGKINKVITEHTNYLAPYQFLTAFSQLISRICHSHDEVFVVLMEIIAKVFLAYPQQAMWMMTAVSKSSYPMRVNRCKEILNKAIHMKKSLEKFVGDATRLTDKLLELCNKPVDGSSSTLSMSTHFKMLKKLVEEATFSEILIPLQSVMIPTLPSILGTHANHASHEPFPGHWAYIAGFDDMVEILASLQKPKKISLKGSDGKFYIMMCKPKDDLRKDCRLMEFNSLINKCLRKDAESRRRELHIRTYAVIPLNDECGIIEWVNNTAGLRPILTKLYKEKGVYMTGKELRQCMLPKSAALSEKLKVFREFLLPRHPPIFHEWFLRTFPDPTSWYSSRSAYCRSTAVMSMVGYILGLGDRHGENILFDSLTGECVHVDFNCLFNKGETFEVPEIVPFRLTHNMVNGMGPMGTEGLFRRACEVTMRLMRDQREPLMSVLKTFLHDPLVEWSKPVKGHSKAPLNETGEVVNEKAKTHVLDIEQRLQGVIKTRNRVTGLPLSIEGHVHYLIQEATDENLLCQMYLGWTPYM
Chain of ATR kinase (Q8WXE1 whole entry partner): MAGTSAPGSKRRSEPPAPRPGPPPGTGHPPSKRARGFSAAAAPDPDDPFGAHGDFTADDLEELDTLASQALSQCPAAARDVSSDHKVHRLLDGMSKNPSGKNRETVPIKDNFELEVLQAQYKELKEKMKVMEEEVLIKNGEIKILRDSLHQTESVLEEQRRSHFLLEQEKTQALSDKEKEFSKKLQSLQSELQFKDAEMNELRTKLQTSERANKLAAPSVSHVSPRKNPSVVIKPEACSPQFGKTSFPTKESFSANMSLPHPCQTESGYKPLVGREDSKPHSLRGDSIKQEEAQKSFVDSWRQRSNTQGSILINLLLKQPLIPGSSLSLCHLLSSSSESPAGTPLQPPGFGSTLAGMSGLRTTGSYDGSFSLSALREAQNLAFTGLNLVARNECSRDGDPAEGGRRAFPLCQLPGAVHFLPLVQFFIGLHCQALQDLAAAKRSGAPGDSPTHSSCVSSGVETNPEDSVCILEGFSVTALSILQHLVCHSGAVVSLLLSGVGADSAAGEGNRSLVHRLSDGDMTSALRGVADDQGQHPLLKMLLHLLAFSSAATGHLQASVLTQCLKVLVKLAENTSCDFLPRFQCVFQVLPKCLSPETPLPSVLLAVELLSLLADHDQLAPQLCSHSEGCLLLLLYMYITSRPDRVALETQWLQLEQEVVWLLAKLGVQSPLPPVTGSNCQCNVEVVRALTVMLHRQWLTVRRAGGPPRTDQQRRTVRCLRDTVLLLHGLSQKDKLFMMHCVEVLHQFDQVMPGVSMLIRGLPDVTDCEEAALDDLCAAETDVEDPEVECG

| SMILES | IC50 [nM] |
| --- | --- |
| CN(C)C(=O)c1ccc(-c2cnc(N)c(-c3cc(-c4ccc(CNC(=N)N)cc4)no3)n2)cc1 [Example 25, 4-(5-amino-6-(3-(4-(guanidinomethyl)phenyl)isoxazol-5-yl)pyrazin-2-yl)-N,N-dimethylbenzamide dihydrochloride] | 1.98 |
| CNCc1ccc(-c2cc(-c3nc(-c4ccc5c(c4)C(F)C(C)(C)S5(=O)=O)cnc3N)no2)cc1 (stereo not drawn) [Example 34, 5-(5-amino-6-(5-(4-((methylamino)methyl)phenyl)isoxazol-3-yl)pyrazin-2-yl)-3-fluoro-2,2-dimethyl-2,3-dihydrobenzo[b]thiophene 1,1-dioxide] | 0.92 |
| CC(C)S(=O)(=O)c1ccc(-c2cnc(N)c(-c3cc(-c4ccc(CNC(=N)N)cc4C(F)(F)F)no3)n2)cc1 [Example 30, 1-(4-(5-(3-amino-6-(4-(isopropylsulfonyl)phenyl)pyrazin-2-yl)isoxazol-3-yl)-3-(trifluoromethyl)benzyl)guanidine dihydrochloride] | 3.35 |
| N=C(N)NCc1ccc(-c2cc(-c3nc(-c4ccc5c(c4)CCS5(=O)=O)cnc3N)on2)cc1 [Example 27, 1-(4-(5-(3-amino)-6-(1,1-dioxo-2,3-dihydrobenzo[b]thiophen-5-yl)pyrazin-2-yl)isoxazol-3-yl)benzyl)guanidine dihydrochloride] | 0.75 |
| CNC(=N)Nc1ccc(-c2cc(-c3nc(-c4ccc(S(=O)(=O)C(C)C)cc4)cnc3N)on2)c(F)c1 [Example 20, 1-(4-(5-(3-amino-6-(4-(isopropylsulfonyl)phenyl)pyrazin-2-yl)isoxazol-3-yl)-3-fluorophenyl)-3-methylguanidine dihydrochloride] | 1.81 |
| CC(C)S(=O)(=O)c1ccc(-c2cnc(N)c(-c3cc(-c4ccc5[nH]c(=O)[nH]c5c4)no3)n2)cc1 [Example 21, 5-(5-(3-amino-6-(4-(isopropylsulfonyl)phenyl)pyrazin-2-yl)isoxazol-3-yl)-1,3-dihydro-2H-benzo[d]imidazol-2-one] | 1.31 |
| CNC(=O)Nc1ccc(-c2cc(-c3nc(-c4ccc(S(=O)(=O)C(C)C)cc4)cnc3N)on2)cc1 [Example 14, 1-(4-(5-(3-amino-6-(4-(isopropylsulfonyl)phenyl)pyrazin-2-yl)isoxazol-3-yl)phenyl)-3-methylurea] | 1.42 |
| CC(C)S(=O)(=O)c1ccc(-c2cnc(N)c(-c3cc(-c4ccc(CNS(N)(=O)=O)cc4)no3)n2)cc1 [Example 8, 3-(3-(4-((aminosulfonyl)aminomethylene)phenyl)isoxazol-5-yl)-5-(4-(isopropylsulfonyl)phenyl)pyrazin-2-amine] | 3.64 |
| CNC(=N)Nc1ccc(-c2cc(-c3nc(-c4ccc(S(=O)(=O)C(C)C)cc4)cnc3N)on2)nc1 [Example 19, 1-(6-(5-(3-amino-6-(4-(isopropylsulfonyl)phenyl)pyrazin-2-yl)isoxazol-3-yl)pyridin-3-yl)-3-methylguanidine dihydrochloride] | 1.26 |
| CC(C)S(=O)(=O)c1ccc(-c2cnc(N)c(-c3cc(-c4ccc(C(=O)NC(=N)N)cc4)no3)n2)cc1 [Example 26, dihydrochloride] | 2.06 |
| CC(C)S(=O)(=O)c1ccc(-c2cnc(N)c(-c3cc(-c4ccc5[nH]nnc5c4)no3)n2)cc1 [Example 3, 3-(3-(1H-benzo[d][1,2,3]triazol-5-yl)isoxazol-5-yl)-5-(4-(isopropylsulfonyl)phenyl)pyrazin-2-amine] | 1.6 |
| CN=S(=O)(c1ccc(-c2cnc(N)c(-c3cc(-c4ccc(CNC(=N)N)cc4)no3)n2)cc1)C(C)C (stereo not drawn) [Example 13, 1-(4-(5-(3-amino-6-(4-(N-methylpropan-2-yl-sulfonimido)phenyl)pyrazin-2-yl)isoxazol-3-yl)benzyl)guanidine dihydrochloride] | 1.68 |
| CN1CCC(NCc2ccc(-c3nnc(-c4nc(-c5ccc6c(c5)C(F)C(C)(C)S6(=O)=O)cnc4N)o3)cc2)CC1 (stereo not drawn) [Example 36] | 0.57 |
| CC(C)S(=O)(=O)c1ccc(-c2cnc(N)c(-c3cc(-c4ccc5c(c4)CNC5=O)no3)n2)cc1 [Example 31] | 4 |
| CCNC(=N)Nc1ccc(-c2cc(-c3nc(-c4ccc(S(=O)(=O)C(C)C)cc4)cnc3N)on2)cc1 [Example 18, 1-(4-(5-(3-amino-6-(4-(isopropylsulfonyl)phenyl)pyrazin-2-yl)isoxazol-3-yl)phenyl)-3-ethylguanidine dihydrochloride] | 1.16 |
| CNCc1ccc(-c2cc(-c3nc(-c4ccc5c(c4)C(F)C(C)(C)S5(=O)=O)cnc3N)on2)cc1 (stereo not drawn) [Example 32, 5-(5-amino-6-(3-(4-((methylamino)methyl)phenyl)isoxazol-5-yl)pyrazin-2-yl)-3-fluoro-2,2-dimethyl-2,3-dihydrobenzo[b]thiophene 1,1-dioxide] | 2.09 |
| CCNC(=O)NCc1ccc(-c2cc(-c3nc(-c4ccc(S(=O)(=O)C(C)C)cc4)cnc3N)on2)cc1 [Example 6, 1-(4-(5-(3-amino-6-(4-(isopropylsulfonyl)phenyl)pyrazin-2-yl)isoxazol-3-yl)benzyl)-3-ethylurea] | 2.9 |
| CC(=N)NCc1ccc(-c2cc(-c3nc(-c4ccc(S(=O)(=O)C(C)C)cc4)cnc3N)on2)cc1 [Example 28, N-(4-(5-(3-amino-6-(4-(isopropylsulfonyl)phenyl)pyrazin-2-yl)isoxazol-3-yl)benzyl)acetamidine dihydrochloride] | 1.29 |
| CNCc1ccc(-c2nnc(-c3nc(-c4ccc5c(c4)C(F)C(C)(C)S5(=O)=O)cnc3N)s2)cc1 (stereo not drawn) [Example 37, 5-(5-amino-6-(5-(4-((methylamino)methyl)phenyl)-1,3,4-thiadiazol-2-yl)pyrazin-2-yl)-3-fluoro-2,2-dimethyl-2,3-dihydrobenzo[b]thiophene 1,1-dioxide] | 0.77 |
| CC(C)S(=O)(=O)c1ccc(-c2cnc(N)c(-c3cc(-c4ccc(CNC(=N)N)c(F)c4)no3)n2)cc1 [Example 24, 1-(4-(5-(3-amino-6-(4-(isopropylsulfonyl)phenyl)pyrazin-2-yl)isoxazol-3-yl)-2-fluorobenzyl)guanidine dihydrochloride] | 1.08 |
| CNC(=N)Nc1ccc(-c2cc(-c3nc(-c4ccc(S(=O)(=O)C(C)C)cc4)cnc3N)on2)cc1 [Example 17, 1-(4-(5-(3-amino-6-(4-(isopropylsulfonyl)phenyl)pyrazin-2-yl)isoxazol-3-yl)phenyl)-3-methylguanidine dihydrochloride] | 0.93 |
